Some results are limits rather than exact numbers.

Regarding `N#Cc1c(I)c(C(=O)NCCO)c(I)c(C(=O)NCCO)c1I`, the melting point came out at 300 °C.

On to `CN1C(c2ccc3ccccc3c2)CC(=O)CC1c1ccc2ccccc2c1` (centres undefined), for which the melting point fell in the range of 209 to 212 °C.

On to `CC(C)c1ccc(NC(=O)N2CCc3cc(S(=O)(=O)N4CCN(c5cccc(Cl)c5)CC4)ccc32)cc1`, for which the melting point is 182 °C.

`CCCC(Sc1nc2ccccc2[nH]1)C(=O)Nc1c(SC)cc(C)nc1SC` (centres undefined) returned a melting point of 235 to 237 °C.

`COc1ccc(C2=NN(Cc3ccc(C(=O)O)cc3)C(=O)[C@H]3CCCC[C@@H]23)cc1OC1CCCC1` (relative stereo): the melting point lay in the range of 189 to 190 °C.

Take `O=C1Nc2cc(C(F)(F)F)cc(C(F)(F)F)c2C1=O`: the melting point was 200 to 203 °C.

Turning to `COc1ccccc1C1SCCCS1`, the melting point lay within 127 to 128 °C.

On to `Nc1c(OCc2ccccc2)cc(Br)cc1[N+](=O)[O-]`, for which the melting point is 90 °C.

Regarding `O=CC(CC(=O)O)NC(=O)[C@@H]1CCCN1C(=O)c1nc(CCc2ccccc2)c[nH]1` (some centres undefined), the melting point fell in the range of 102 to 104 °C.

The compound `O=C(CCC1c2ccccc2-c2ccccc21)Nc1ccc(C(=O)O)c(O)c1` returned a melting point of 225 to 228 °C.

Regarding `CC(C)C(=O)N[C@H]1CCc2c(c3cc(Br)ccc3n2Cc2ccccc2)C1`, the melting point lay in the range of 177 to 179 °C.

`Fc1ccc(COc2ncc(F)c(N=CN3CCCC3)n2)cc1` registered a melting point of 102 to 103 °C.

In the case of `C=CCc1cc2c(C)c(C#N)c(=O)oc2c(C)c1O`, the melting point fell in the range of 163 to 164 °C.

In turn, `O=Nc1ccc(NC2CCCCC2)cc1` yielded a melting point of 90 to 92 °C.

In turn, `COc1csc(C=CC(=O)c2ccccc2)c1` yielded a melting point of 104 °C.

`C=Cc1c(N)nc(-c2ccc(Cl)c(OC)c2F)nc1C(=O)OCc1ccccc1` yielded a melting point of 119 to 121 °C.

Turning to `Cc1cnc2c(c1)COP(=S)(OC(C)C)O2` (centres undefined), the melting point lay in the range of 96 to 98 °C.

`O=C1C=CC(O)(c2cccc3ccccc23)C=C1` returned a melting point of 117 to 118 °C.

The compound `COC(=O)c1sc2c(c1O)CN(C(=O)OC(C)(C)C)CC2` displayed a melting point of 84.5 to 86 °C.

Turning to `COc1ccc(C2CCN(C(=O)Nc3ccc4cc(CN5CCCC5)ccc4c3)CC2)cc1`, the melting point is 194 to 196 °C.

Consider `COc1ccc(/C=C/c2ccncn2)cc1OC1CCCC1`, for which the melting point is 83 to 84.5 °C.

`CCCCc1nn(-c2cc([N+](=O)[O-])ccc2C(F)(F)F)c(=O)n1Cc1ccc(-c2ccccc2S(=O)(=O)NC(C)(C)C)cc1F` showed a melting point of 145 to 146 °C.

Regarding `CN(C)C(=O)c1ccccc1OCC(=O)NC(C)(C)c1ccc(Cl)cc1`, the melting point fell in the range of 127 to 129 °C.

The compound `CC(=NOCCO)c1ccc2ccccc2n1` yielded a melting point of 89 °C.

Regarding `CCOC(=O)Nc1cc2c3ccccc3n(CC)c2cn1`, the melting point was in the range of 217 to 218 °C.

Take `COc1nccc(C)c1NC(=O)c1cc(C)nc2c1c(C)nn2-c1ccccc1`: the melting point lay in the range of 172 to 174 °C.

With `COC1C(N(C)S(C)(=O)=O)c2cc(OCc3ccccc3)ccc2OC1(C)C` (centres undefined), the melting point is 119 to 121 °C.

Consider `COc1ccc(C(=O)CC(=O)c2ccc(O)cc2O)cc1OC`, for which the melting point was 263 to 265 °C.

On to `O=C(c1ccccc1C(c1ccc(O)cc1)c1ccc(O)cc1)N1CCCCC1`, for which the melting point was in the range of 242 to 244 °C.

`Cc1cc2c(Oc3cccc(C(F)(F)F)c3)nc(OCC(F)(F)F)nc2s1` showed a melting point of 124 to 125 °C.

In turn, `COc1cccc(CNS(=O)(=O)Cc2ccc3[nH]cc(CC#N)c3c2)c1` registered a melting point of 125 to 126 °C.

Compound `CCn1nc(OCCCc2ccc(OCCOC(C)C)cc2Oc2ncc(C(F)(F)F)cc2Cl)cc1CCC(=O)O` showed a melting point of 130 to 132 °C.

For the compound `CCOc1ccc(OCCCN2CCN(c3ccc(Cl)nn3)CC2)cc1`, the melting point lay in the range of 125 to 127 °C.

Regarding `O=C1OC(CO)CN1c1ccc(O)cc1` (centres undefined), the melting point came out at 189 °C.

The compound `CS(=O)(=O)Nc1ccc(C(=O)CC(=O)C2CC2)c(Cl)c1` came in with a melting point of 120 to 122 °C.

In the case of `CCCCc1ccc(-c2ccccc2)c(C(=O)O)c1`, the melting point fell in the range of 74 to 76 °C.

The compound `CC(=O)NCC1CN(c2ccc(N(C)C=O)c(F)c2)C(=O)O1` (centres undefined) yielded a melting point of 116 to 117 °C.

`Cc1cc2c3c(ccn2n1)CCC3CCNC(=O)C1CC1` (centres undefined) yielded a melting point of 112 to 113 °C.

Compound `CN(C)C=Nc1c(Cl)cc(N=Cc2cccc(F)c2)cc1Cl` registered a melting point of 95 to 96 °C.

In the case of `Fc1ccc(Cn2c(NCCN3CCC(Nc4nc5ccccc5n4Cc4ccc(F)cc4)CC3)nc3ccccc32)cc1`, the melting point was determined as 197 °C.

`CC(C)(C)n1nnc(Cc2ccc(Br)cc2)n1` came in with a melting point of 69 to 70 °C.

Take `NNC1=NOCc2ccc(Cl)cc21`: the melting point fell in the range of 148 to 149 °C.

The compound `COc1ccc(N)cc1-c1nc(C)c(-c2cccnc2)[nH]1` had a melting point of 172 to 173 °C.

As to `CCc1c(C(=O)c2cc(C)cc(C)c2)n(C/C=C/CN=[N+]=[N-])c(=O)[nH]c1=O`, the melting point lay in the range of 119 to 120 °C.

In turn, `CC(=O)NC(C(=O)NCc1ccncc1)c1ccco1` (centres undefined) registered a melting point of 168 to 170 °C.

As for `Cc1noc(NS(=O)(=O)c2ccccc2-c2ccc(-c3ccno3)cc2)c1C`, the melting point was 85 to 90 °C.

Consider `COC(=O)c1nc(OC)c2ccccc2n1`, for which the melting point is 129 to 130 °C.

In turn, `O=C(NC1CCN(CCC(O)C(=O)C(O)CCN2CCC(NC(=O)c3ccccc3)CC2)CC1)c1ccccc1` (centres undefined) displayed a melting point of 154 to 155 °C.

`COC(=O)C1(OC)CC(C)C(=O)C=C1O` (centres undefined) had a melting point of 117 to 118 °C.

On to `CCOc1ccc2c(c1)n(C1CCCCC1)c(=O)n2S(=O)(=O)c1ccc(NC(=O)N(C)C(C)(C)C)cc1OC`, for which the melting point amounted to 208 °C.

`O=Cc1c[nH]c2ncc(-c3cccc(N4CCN(C(=O)C5CCNCC5)CC4)c3)nc12` had a melting point of over 300 °C.

As for `Cc1cnc2n1-c1cc(Cl)c(Cl)cc1N=C(c1ccc(-n3c(C)nnc3C)cc1)C2`, the melting point turned out to be 165 °C.

Compound `CCc1cc(/C=C/C(N)=O)ccc1Cl` registered a melting point of 152 to 153 °C.

For `CC(C)(C)n1c(=O)c2c(-c3nc(C4CC4)no3)ncn2c2ccccc21`, the melting point was 182 to 184 °C.

In turn, `COc1cc(Br)c2nc(-c3ccc(OC)c(F)c3)cc(O)c2c1` registered a melting point of 200 to 201 °C.

The compound `CC(C)CCNc1ccccc1NCC12CC3CC(CC(C3)C1)C2` showed a melting point of 64 to 65 °C.

`COc1ccc(C2(C34CC5CC(CC(C5)C3)C4)N=C(N)N(C)C2=O)cc1OC` (centres undefined): the melting point was determined as 130 °C.

For `CC1(C)CCC(C)(C)c2cc(C(=O)C(=O)c3ccc(C(=O)O)cc3)ccc21`, the melting point fell in the range of 148 to 151 °C.

Consider `O=C(O)c1ccc(-c2coc(-c3cccc(C(F)(F)F)c3)n2)cc1`, for which the melting point was 268 to 269 °C.

As for `CCn1c2ccccc2c2sccc(=O)c21`, the melting point was in the range of 103 to 104 °C.

`O=C(O)CCCc1cc2nc(Cl)ccc2n1S(=O)(=O)c1cccc(Cl)c1Cl`: the melting point fell in the range of 173 to 174 °C.

Regarding `NC(=O)C(CC1CCCC1)c1ccc(Cl)c([N+](=O)[O-])c1` (centres undefined), the melting point was in the range of 112 to 114 °C.

Turning to `CC(C)[C@H](NC(=O)OCc1ccccn1)C(=O)N[C@@H](Cc1ccccc1)C[C@H](O)[C@H](Cc1ccccc1)NC(=O)[C@@H](NC(=O)OCc1ccccn1)C(C)C`, the melting point was in the range of 220 to 222 °C.

As for `O=C(O)CCCC1C(=O)Nc2ccccc21` (centres undefined), the melting point lay within 79 to 80 °C.

Consider `Cc1nnc(NCCN2CCC(Nc3nc4ccccc4n3Cc3ccc(F)cc3)CC2)s1`, for which the melting point is 191 °C.

Take `CCOC(=O)c1cc(C#N)ccn1`: the melting point fell in the range of 170 to 172 °C.

In turn, `CCOC(=O)c1cn(-c2nc(NCc3ccc(OC)cc3)c(F)cc2F)c2c(F)c(F)c(F)c(NCc3ccccc3)c2c1=O` came in with a melting point of 146 to 148 °C.

Compound `N#Cc1ccccc1Oc1cc(-n2cccc2)ccc1O` showed a melting point of 120 to 122 °C.

In the case of `CNc1nc(Cl)ccc1[N+](=O)[O-]`, the melting point amounted to 114 °C.

`COc1ccc(C=CC(=O)c2ccccc2Br)c(OC)c1` gave a melting point of 91.3 to 91.8 °C.

`CN1CCN(C2=Nc3ccccc3Sc3ccccc32)C[C@H]1Cc1ccccc1` registered a melting point of 46 to 63 °C.

In the case of `NNc1ccnc2c(NC(=O)c3c(Cl)cccc3Cl)cccc12`, the melting point fell in the range of 204 to 206 °C.

In turn, `O=C(O)CCOc1cccc2c1Cc1sc(SCCC(c3ccccc3)c3ccccc3)nc1-2` registered a melting point of 113 to 114 °C.

The compound `CNC(=O)c1ccc(-n2nc(C(=O)NC3(C(=O)O)C4CC5CC(C4)CC3C5)cc2-c2c(OC)cccc2OC)c2ccccc12` (centres undefined) displayed a melting point of 170 °C.

The compound `CN1CCN(c2nc(-c3ccccc3)c3ccccc3n2)CC1` displayed a melting point of 101 to 122 °C.

Take `COC(=O)C(Oc1ccc(Cl)cc1)c1ccc(Oc2ccccc2)cc1` (centres undefined): the melting point fell in the range of 99 to 102 °C.

Take `CCOC(=O)N1CCC(c2[nH]nc3c2C(=O)c2c(NC(=O)NN4CCOCC4)cccc2-3)CC1`: the melting point lay within 206 to 207 °C.

`COC(=O)c1cccc(C)c1N` showed a melting point of 27 to 29 °C.

For `Cc1ccc(Nc2nnc(-c3cccc(OCc4ccccc4)c3)s2)cc1Cl`, the melting point lay in the range of 211 to 212 °C.

The compound `COc1ccc(CNc2nc(NCCCc3ccc(C(C)=O)cc3)nc3ncccc23)cc1OC` had a melting point of 184 to 185 °C.

In turn, `Cc1c(CC(=O)O)oc2ccc(C(C)(C)C)cc12` came in with a melting point of 169 to 170 °C.

`O=CN(O)C(CCCO)CS(=O)(=O)c1ccc(-c2ccc(F)cc2)cc1` (centres undefined) registered a melting point of 143 to 144 °C.

Turning to `N#CC1=C(Nc2cccc(F)c2)CCC1`, the melting point fell in the range of 98 to 100 °C.

Turning to `Oc1ccc(OC[C@@H](O)CNCCc2ccc(-n3c(CCC4CCCC4)nc4cccnc43)cc2)cc1`, the melting point was 59 to 61 °C.

Consider `OCCCc1ccc2ccccc2c1O`, for which the melting point was in the range of 85 to 86 °C.

For the compound `ON=C(Cn1ccnc1)c1ccc(Cl)cc1Cl`, the melting point lay in the range of 205 to 206 °C.

Take `Cc1cccc(Cc2ccc(-c3cnn4c(O)ncnc34)cc2C)c1`: the melting point lay in the range of 259 to 262 °C.

`NC(=O)CC(CC(N)=O)c1cccc(Cl)c1Cl` gave a melting point of 194 to 196 °C.

`COc1ccc(-c2cnc3cc4cnn(C[C@@H]5COC(C)(C)O5)c4cc3n2)cc1F` registered a melting point of 145 to 151 °C.

One may read the melting point as the temperature, or range, at which the solid turns liquid.

Source of the values: a melting point compilation (Tetko et al.; mined from patent text by program, amines drawn as free bases though some values may be those of a salt).
